# In ChEMBL document CHEMBL3046079, “Synthesis, herbicidal activity, and mode of action of IR 5790” (J Agric Food Chem, 2001):
# Tests used:
# Panicum dichotomiflorum [1] = test: Post-emergence herbicidal activity against Panicum dichotomiflorum assessed as injury at 50 g/ha applied at 15 days post-sowing measured after 15 days relative to control; format: functional
# Sorghum bicolor = test: Pre-emergence herbicidal activity against Sorghum bicolor assessed as injury at 50 g/ha applied at 24 hr post-sowing measured after 28 days relative to control; format: functional
# Abutilon theophrasti = test: Post-emergence herbicidal activity against Abutilon theophrasti (velvetleaf) assessed as injury at 50 g/ha applied at 15 days post-sowing measured after 15 days relative to control; format: functional
# Xanthium strumarium = test: Pre-emergence herbicidal activity against Xanthium strumarium (cocklebur) assessed as injury at 50 g/ha applied at 24 hr post-sowing measured after 28 days relative to control; format: functional
# Stellaria media = test: Post-emergence herbicidal activity against Stellaria media assessed as injury at 50 g/ha applied at 15 days post-sowing measured after 15 days relative to control; format: functional
# Triticum aestivum [2] = test: Phytotoxicity against Triticum aestivum (wheat) assessed as injury at 15 g/ha applied as post-emergent treatment at 15 days post-sowing measured after 15 days relative to control; format: organism-based; conditions: in vivo, other, 360 h
# Capsella bursa-pastoris = test: Post-emergence herbicidal activity against Capsella bursa-pastoris assessed as injury at 50 g/ha applied at 15 days post-sowing measured after 15 days relative to control; format: functional
# Sida spinosa [3] = test: Pre-emergence herbicidal activity against Sida spinosa assessed as injury at 150 g/ha applied at 24 hr post-sowing measured after 28 days relative to control; format: functional
# Sida spinosa [4] = test: Pre-emergence herbicidal activity against Sida spinosa assessed as injury at 50 g/ha applied at 24 hr post-sowing measured after 28 days relative to control; format: functional
# Panicum dichotomiflorum [5] = test: Pre-emergence herbicidal activity against Panicum dichotomiflorum assessed as injury at 150 g/ha applied at 24 hr post-sowing measured after 28 days relative to control; format: functional
# Digitaria sanguinalis = test: Post-emergence herbicidal activity against Digitaria sanguinalis (hairy crabgrass) assessed as injury at 50 g/ha applied at 15 days post-sowing measured after 15 days relative to control; format: functional
# Glycine max = test: Phytotoxicity against Glycine max (soybean) assessed as injury at 150 g/ha applied as post-emergent treatment at 15 days post-sowing measured after 15 days relative to control; format: organism-based; conditions: in vivo, other, 360 h
# Solanum nigrum [6] = test: Pre-emergence herbicidal activity against Solanum nigrum (black nightshade) assessed as injury at 50 g/ha applied at 24 hr post-sowing measured after 28 days relative to control; format: functional
# Ipomoea purpurea [7] = test: Post-emergence herbicidal activity against Ipomoea purpurea (common morning-glory) assessed as injury at 150 g/ha applied at 15 days post-sowing measured after 15 days relative to control; format: functional
# Solanum nigrum [8] = test: Post-emergence herbicidal activity against Solanum nigrum (black nightshade) assessed as injury at 50 g/ha applied at 15 days post-sowing measured after 15 days relative to control; format: functional
# Triticum aestivum [9] = test: Phytotoxicity against Triticum aestivum (wheat) assessed as injury at 150 g/ha applied as post-emergent treatment at 15 days post-sowing measured after 15 days relative to control; format: organism-based; conditions: in vivo, other, 360 h
# Alopecurus myosuroides = test: Post-emergence herbicidal activity against Alopecurus myosuroides assessed as injury at 15 g/ha applied at 15 days post-sowing measured after 15 days relative to control; format: functional
# Ipomoea purpurea [10] = test: Post-emergence herbicidal activity against Ipomoea purpurea (common morning-glory) assessed as injury at 5 g/ha applied at 15 days post-sowing measured after 15 days relative to control; format: functional
# Geranium dissectum = test: Pre-emergence herbicidal activity against Geranium dissectum assessed as injury at 50 g/ha applied at 24 hr post-sowing measured after 28 days relative to control; format: functional
# Calystegia sepium = test: Post-emergence herbicidal activity against Calystegia sepium assessed as injury at 150 g/ha applied at 15 days post-sowing measured after 15 days relative to control; format: functional
compound,measurement,setting,value
C#CCOc1cc(-n2nc(C(C)(C)C)sc2=O)c(Cl)cc1Cl,Activity,Panicum dichotomiflorum [1],50%
same,Activity,Sorghum bicolor,0%
same,Activity,Abutilon theophrasti,70%
same,Activity,Xanthium strumarium,0%
same,Activity,Stellaria media,0%
same,Activity,Triticum aestivum [2],0%
same,Activity,Capsella bursa-pastoris,10%
same,Activity,Sida spinosa [3],0%
same,Activity,Sida spinosa [4],0%
same,Activity,Panicum dichotomiflorum [5],90%
same,Activity,Digitaria sanguinalis,50%
same,Activity,Glycine max,30%
same,Activity,Solanum nigrum [6],30%
same,Activity,Ipomoea purpurea [7],90%
same,Activity,Solanum nigrum [8],90%
same,Activity,Triticum aestivum [9],50%
same,Activity,Alopecurus myosuroides,0%
same,Activity,Ipomoea purpurea [10],50%
same,Activity,Geranium dissectum,0%
same,Activity,Calystegia sepium,90%
